In patent US20060009465A1, “Treatment of sleep disorders using sleep target modulators” (priority 2002, published 2006):
“Also recorded” adds a separate entry of the source.

Tested on: Male Wistar rats
Test: SCORE-2000 sleep-wake assay (EEG/EMG, locomotor activity, body temperature)
[1] = Example 2, 10 mg/kg IP at CT-18
[2] = Example 3, male Wistar rats, 30 mg/kg
[3] = Example 2, 3 mg/kg and 10 mg/kg IP at CT-5

## Cl.O=C(O)C1CN(CCCn2nc3ccccn3c2=O)CCN1c1cccc(Cl)c1 (centres unmarked) [HY-2724]
Example 4, male Wistar rats, 30 mg/kg
  increasing sleep and sleep consolidation: ineffective

## O=c1n(CCCN2CCN(c3cccc(Cl)c3)CC2)nc2ccccn12 [Trazodone]
[1]
  REM Sleep Inhibition: without evidence
  adverse thermoregulatory events post-treatment: no evidence
  disproportional motor inhibition / locomotor activity changes: without evidence; also recorded: no evidence
  nonREM sleep time: increased nonREM sleep time; also recorded: markedly and significantly increased
  rebound insomnia: without evidence; also recorded: no evidence
[2]
  Body Temp (CV) Adverse Event: Yes
  Disproportional Motor Inhibition: None
  Initial Sleep Interference: initially interferes with sleep; also recorded: significant initial sleep interference
  REM Sleep Inhibition: inhibits REM sleep; also recorded: significant REM sleep inhibition
  rebound insomnia: None

## Clc1cccc(N2CCNCC2)c1 [m-CPP, meta-chlorophenylpiperazine]
[3]
  interference with sleep, time post-treatment: 2 to 3 h
  rebound hypersomnolence: followed by a rebound hypersomnolence
  reduction in nonREM sleep time, lasting post-treatment: 2 to 3 h
